We go through one sequence from paper PMC12351953, “SCAN-ACT: adoptive T cell therapy target discovery through single-cell transcriptomics” (Genome Medicine, 2025).

The assay has as its target HLA-A*02:01 (Homo sapiens, UniProt P04439, D140Y/D185E/D98H/E176V/E277Q/G131W/G231S/I119V/I121R/I166T/I218V/L300P/L318F/N151K/N90K/P208A/P217A/Q86G/Q94H/R138H/R169H/T345S). Nature of the assay: IMMUNE on-yeast peptide competition against biotinylated indicator peptide. It is filed as binding. The note with it: yeast-displayed HLA, 0.5 µM biotinylated indicator peptide (Bio-KLT), 20-fold more concentrated test peptide, overnight to equilibrium, flow cytometry. An excerpt: To construct plasmids driving the expression of non-covalent HLA-I heterodimers, the commercially available backbone vector pRS315 was modified. Briefly, the entire expression cassette containing genes encoding the Aga2 leader sequence, the ectodomain of a particular HLA-I heavy chain allele (A*02:01 or A*11:01 or B*35:01 or C*12:03), the Aga2p yeast native protein subunit, an HA epitope tag, and the MFα terminator was cloned to the downstream of the GAL10 promoter in pRS315, so that the expressed HLA-I heavy chain ectodomain was fused to the N-terminus of Aga2p for yeast surface display. […]
A sufficient amount of galactose-induced yeast cells was collected by centrifugation and labeled by primary antibodies in PBS + 0.5% bovine serum albumin (BSA) for 1 h on ice. […] FL1 and FL4 fluorescence channels were selected for Alexa Fluor 488 and Alexa Fluor 647, respectively, according to the fluorophore selected at the secondary labeling step as mentioned above. […]
To design indicator peptides appropriate for evaluation of HLA peptide binding on the surface of yeast cells and for downstream competitive assay development, the reported epitope repertoire for each aforementioned HLA allele from the Immune Epitope Database was carefully analyzed. […]
For orientation: Flow cytometry measures light scatter and fluorescence of single cells or particles in a stream.

Turning to “RLHRIIPKI [test peptide from SSX1 (printed SSXI), pMHC target identified through PS-TRACT]”, the “binding to A*02:01 (IMMUNE)” value was “bound”.
